This is an account of results in ChEMBL document CHEMBL3988442, “University of Dundee, Small-Polar-MMV Screening Library” (2021).

Experiment [1] can be described thus: microbe, parasite or virus in culture. As to conditions: Mycobacterium tuberculosis, 96 h, read-out: pIC50 (converted).
Experiment [2] is described as follows: microbe, parasite or virus in culture. The note with it: Mycobacterium tuberculosis, 72 h, read-out: pIC50 (converted).

For `Cc1nnc(SC[C@H](O)COCc2ccccc2)s1`, the values for the IC50 in experiment [1] and in experiment [2] were 133 µM and 209 µM, respectively.
Taken in the same sequence, the figures for `Cc1ccc(CCNC(=O)CSCCN2CCCC2)o1` were above 501 µM and 306 µM.
For `NC1CCN(c2ncccc2F)C1` (stereo unspecified), the IC50 is above 501 µM in experiment [1] and 462 µM in experiment [2].
With `NC(=O)NC(=O)CCS(=O)(=O)c1cc(F)ccc1F`, the results for the IC50 in experiment [1] and in experiment [2] were 139 µM and 70.1 µM, respectively.
As to `CCOCC(O)CSc1nccn1-c1cccc(F)c1` (stereo unspecified), the IC50 in experiment [1] was 290 µM; in experiment [2] it was 189 µM.
On to `COC(=O)CCCNc1ccc2c(c1)OCCO2`, for which the IC50 is 467 µM in experiment [1] and 140 µM in experiment [2].
Turning to `O=C(Nc1nnc(-c2cccs2)s1)NC1CCCNC1` (stereo unspecified), the values for the IC50 in experiment [1] and in experiment [2] were above 501 µM and 127 µM, respectively.
Taken in the same sequence, the figures for `COc1coc(CN2CCCC(CCc3ccc(F)cc3)C2)cc1=O` (stereo unspecified) were 23.1 µM and above 50.1 µM.
On to `CN(C)C(CN)c1cccc(F)c1` (stereo unspecified), for which the IC50 in experiment [1] and in experiment [2] was above 501 µM throughout.
Regarding `Cc1cccc(NCCC(=O)NC2CCCC2)n1`, the values for the IC50 in experiment [1] and in experiment [2] were above 501 µM and 122 µM, respectively.
On to `CC(O)CNCCNCc1ccc(-c2ccccc2)o1` (stereo unspecified), for which the figures for the IC50 in experiment [1] and in experiment [2] were 113 µM and 275 µM, respectively.
As for `Cc1nc(-c2cccc(C(=O)O)c2)cc(C2CCN(C(C)C)C2)n1` (stereo unspecified), the IC50 in experiment [1] and in experiment [2] was above 50.1 µM throughout.
With `CN(C)C(=O)c1cc(-c2cccs2)on1`, the IC50 in experiment [1] was 254 µM; in experiment [2] it was above 501 µM.
Turning to `CN(CCCN)c1ccccc1F`, the IC50 in experiment [1] was 129 µM; in experiment [2] it was 86.1 µM.
On to `CN(CCN1CCCC1)S(=O)(=O)c1ccccc1`, for which the IC50 was above 501 µM in experiment [1] and 208 µM in experiment [2].
Taken in the same sequence, the figures for `CC(C)Oc1ccc(S(=O)(=O)N(C)C(C)CN)cc1` (stereo unspecified) were 273 µM and 162 µM.
Taken in the same sequence, the figures for `COc1ccnc(NCc2ccc(CO)c(F)c2)n1` were above 501 µM and above 501 µM.
Take `COc1cccc(CNc2nc(C)no2)c1`: the IC50 in experiment [1] is above 501 µM; in experiment [2], 180 µM.
Taken in the same sequence, the figures for `COc1ccc2c(c1)CN(C(=O)C1CCCOC1)CC2` (stereo unspecified) were above 501 µM and above 501 µM.
Taken in the same sequence, the figures for `Nc1nnc(SCc2ccccc2F)s1` were 157 µM and 248 µM.
Taken in the same sequence, the figures for `COC1(CNC(=O)c2cccc(C#N)c2)CCSC1` (stereo unspecified) were above 50.1 µM and above 50.1 µM.
Turning to `CN(Cc1ccncc1)S(=O)(=O)c1cccs1`, the IC50 in experiment [1] was above 501 µM; in experiment [2], 116 µM.
Taken in the same sequence, the figures for `CCOCc1cnc2n1CCN(C(=O)Cc1ccccn1)C2C` (stereo unspecified) were above 50.1 µM and above 50.1 µM.
Taken in the same sequence, the figures for `c1cc(-c2ccn(CCN3CCCC3)n2)cc(-c2nccs2)c1` were 27.4 µM and 43.6 µM.
Taken in the same sequence, the figures for `Cc1ccc2nnc(C(=O)NCC3CCCC3)nc2c1` were 13.4 µM and 10.4 µM.
Turning to `CCC(N)C(=O)Nc1ccc2c(c1)CCC2` (stereo unspecified), the IC50 in experiment [1] is 176 µM; in experiment [2], 170 µM.
Taken in the same sequence, the figures for `Cc1ccoc1C(=O)N1CCC(n2cc(-c3ccsc3)nn2)CC1` were above 50.1 µM and above 50.1 µM.
Turning to `CN1CCOC(C(=O)Nc2ncc(Cl)s2)C1` (stereo unspecified), the IC50 in experiment [1] was 296 µM; in experiment [2] it was 361 µM.
Taken in the same sequence, the figures for `CC(C(N)=O)N1CCC(=Cc2ccccc2)CC1` (stereo unspecified) were 364 µM and 290 µM.
Regarding `O=C(NCCOc1ncccc1Cl)c1ccsc1`, the figures for the IC50 in experiment [1] and in experiment [2] were 145 µM and 470 µM, respectively.
With `CCc1nn(C)c(Cl)c1CN1CCN(c2ccc(C(N)=O)cn2)CC1`, the IC50 in experiment [1] and in experiment [2] was above 50.1 µM throughout.
`O=C(NC1CC1)c1nc2c(s1)CCCN2c1ccccc1`: the IC50 in experiment [1] was 14.2 µM; in experiment [2] it was above 50.1 µM.
With `CCOC(=O)N1CCN(Cc2nc(C3CC3)no2)CC1`, the IC50 was 109 µM in experiment [1] and 93.9 µM in experiment [2].
As for `COCCNC(=O)c1cc(-c2ccccc2F)no1`, the figures for the IC50 in experiment [1] and in experiment [2] were 127 µM and 195 µM, respectively.
Taken in the same sequence, the figures for `O=C(Nc1cc(Cl)ccc1F)C1=COCCO1` were 265 µM and 228 µM.
Taken in the same sequence, the figures for `CCCNC(=O)c1cc(C(C)C)on1` were 44.3 µM and 9.31 µM.
Taken in the same sequence, the figures for `CCSCCOc1ccc(CO)nc1` were above 501 µM and 216 µM.
Regarding `NCCNS(=O)(=O)c1ccc(F)c(C(F)(F)F)c1`, the IC50 in experiment [1] was above 501 µM; in experiment [2], 476 µM.
Regarding `CCOc1nn(CC)cc1-c1nnc(SCc2ccccn2)n1C`, the results for the IC50 in experiment [1] and in experiment [2] were above 50.1 µM and 25.4 µM, respectively.
For `CS(=O)(=O)NC[C@H]1Cn2c(-c3ccc(Cl)cc3)cnc2CO1`, the IC50 in experiment [1] and in experiment [2] was above 50.1 µM in each case.
For `c1cc2c(cc1C1=NN=C(NC3CC3)SC1)OCCO2`, the figures for the IC50 in experiment [1] and in experiment [2] were 160 µM and 158 µM, respectively.
Taken in the same sequence, the figures for `COc1ccc(CNc2nc(C3CC3)nc3c(C)nn(C)c23)cc1` were 9.46 µM and 27.3 µM.
Taken in the same sequence, the figures for `CC(CN)CNC(=O)c1ccc(C(F)(F)F)cc1` (stereo unspecified) were above 501 µM and above 501 µM.
In the case of `O=C(CCc1ccccc1)N1CC(c2cccnc2)C1`, the IC50 in experiment [1] is 25.3 µM; in experiment [2] it was 45.7 µM.
Taken in the same sequence, the figures for `Cc1ccc(C(C)C)c(OCC(O)CNCCO)c1` (stereo unspecified) were 127 µM and 158 µM.
Taken in the same sequence, the figures for `CN(Cc1ccco1)CC(O)COCc1cccs1` (stereo unspecified) were 188 µM and 235 µM.
Taken in the same sequence, the figures for `N#CCCn1ncc2c(NCc3cccs3)ncnc21` were above 501 µM and 399 µM.
For `O=c1c(Cc2ccccc2)c(O)ccn1Cc1cccs1`, the IC50 in experiment [1] and in experiment [2] was above 50.1 µM throughout.
With `CCOC(=O)C(C)Nc1ccc2oc(=O)[nH]c2c1` (stereo unspecified), the IC50 was 292 µM in experiment [1] and 311 µM in experiment [2].
Taken in the same sequence, the figures for `CCS(=O)(=O)N(C)CCCNc1ccc(Cl)cn1` were 163 µM and 129 µM.
`CNS(=O)(=O)c1ccc(C(=O)Nc2ccc(F)cc2)o1`: the IC50 in experiment [1] and in experiment [2] was above 501 µM each time.
For the molecule `O=C(NCCCOC(F)F)NCc1ccc(Br)o1`, the IC50 was 125 µM in experiment [1] and 135 µM in experiment [2].
Taken in the same sequence, the figures for `COCCC(=O)NCC(C)c1ccc(F)c(F)c1` (stereo unspecified) were above 501 µM and above 501 µM.
Taken in the same sequence, the figures for `Cc1ccc(CCNc2ncc(C)c(-c3ccnn3C)n2)s1` were above 50.1 µM and 11.2 µM.
Regarding `Cc1ccc(-n2cc(CN3CCOCC3)c(-c3cccc(C)c3)n2)cc1`, the IC50 in experiment [1] is above 50.1 µM; in experiment [2], 24.8 µM.
Taken in the same sequence, the figures for `O=C(Nc1ccccn1)C1Cc2ccccc2O1` (stereo unspecified) were 277 µM and 268 µM.
Taken in the same sequence, the figures for `O=C(NCC1(c2ccc(F)cc2)CC1)N1CCC2(CCOC2)C1` (stereo unspecified) were above 50.1 µM and above 50.1 µM.
Taken in the same sequence, the figures for `Cc1nc(N2CCCC2)nc2c1CCN(Cc1ccoc1)CC2` were 14.7 µM and 22.8 µM.
Consider `CCOCCOc1cc(C)ccc1CN`, for which the IC50 was above 501 µM in experiment [1] and 208 µM in experiment [2].
Taken in the same sequence, the figures for `CN(C1CCCCC1)S(=O)(=O)NC1CCCCNC1=O` (stereo unspecified) were above 501 µM and above 501 µM.
Take `O=C(COCC(F)(F)F)NCc1cn2ccccc2n1`: the IC50 in experiment [1] was above 501 µM; in experiment [2], 92.3 µM.
As to `O=C(NCCc1c[nH]c2ccc(F)cc12)C1(n2cnnn2)CCCCC1`, the IC50 was 28 µM in experiment [1] and 46.3 µM in experiment [2].
For the molecule `CCCNc1cc(-n2cccn2)ncn1`, the IC50 in experiment [1] was 280 µM; in experiment [2], 58.4 µM.
Taken in the same sequence, the figures for `O=C(COC(=O)c1cccs1)NCc1ccco1` were above 501 µM and 204 µM.
Taken in the same sequence, the figures for `Cc1nnc(SCCC(=O)N(C)Cc2ccc(Cl)s2)[nH]1` were 27.3 µM and above 50.1 µM.
Take `Fc1ccc(CSc2nnnn2CC2CCCO2)cc1` (stereo unspecified): the IC50 is 80.8 µM in experiment [1] and 39 µM in experiment [2].
Taken in the same sequence, the figures for `COc1ccc(COCC(=O)N2CCCC(n3cncn3)C2)cc1` (stereo unspecified) were above 50.1 µM and above 50.1 µM.
Taken in the same sequence, the figures for `CN(C)c1nc(-c2ccc3c(c2)CCC(=O)N3)cs1` were 201 µM and 120 µM.
Taken in the same sequence, the figures for `COc1cccc(CNc2ccccc2CO)n1` were above 501 µM and above 501 µM.
Take `CC(=O)Nc1nc(C(=O)NCCOc2ccc(C)cc2)cs1`: the IC50 in experiment [1] and in experiment [2] was above 50.1 µM in each case.
`OCC1CN(c2ncc(Cl)cc2F)CCO1` (stereo unspecified): the IC50 in experiment [1] was 180 µM; in experiment [2] it was 115 µM.
On to `O=C(c1c[nH]c2ccccc2c1=O)N1CCSCC1`, for which the IC50 in experiment [1] is above 50.1 µM; in experiment [2] it was 27.8 µM.
Taken in the same sequence, the figures for `CC(CO)(CO)NCc1cnn(-c2ccc(Br)cc2)c1` were 393 µM and 238 µM.
For the molecule `CCOC1COC2(CCN(Cc3ccc4c(c3)OCO4)CC2)C1` (stereo unspecified), the IC50 in experiment [1] and in experiment [2] was above 50.1 µM each time.
`NS(=O)(=O)c1ccc(NC(=O)Cn2ccnc2)cc1`: the IC50 in experiment [1] and in experiment [2] was above 501 µM each time.
Regarding `Cc1ccncc1NC1CS(=O)(=O)c2ccccc21` (stereo unspecified), the values for the IC50 in experiment [1] and in experiment [2] were 43.2 µM and 27.1 µM, respectively.
Taken in the same sequence, the figures for `COc1ccccc1C(N)c1ccccn1` (stereo unspecified) were 453 µM and 233 µM.
Taken in the same sequence, the figures for `O=C(c1cc(Cl)c[nH]1)N1CCOC(c2cccs2)C1` (stereo unspecified) were above 501 µM and 50.5 µM.
Taken in the same sequence, the figures for `Cn1cc(CNC(=O)c2cccc(I)c2)cn1` were 70.2 µM and 166 µM.
On to `CN(CC(=O)N1CCOCC1)Cc1cc(Br)cs1`, for which the IC50 in experiment [1] was 55.2 µM; in experiment [2], 114 µM.
For `COc1ccc(S(=O)(=O)Nc2cccc(CN)c2)cc1`, the IC50 is above 501 µM in experiment [1] and 162 µM in experiment [2].
`OCC(Nc1ncccc1Br)c1ccccc1` (stereo unspecified): the IC50 in experiment [1] was 327 µM; in experiment [2], 184 µM.
Taken in the same sequence, the figures for `Cc1nc[nH]c1CN1CCCC12CCN(c1nc3ccccc3s1)CC2` were above 50.1 µM and 46 µM.
